Reference: paper PMC6013238, “Development of novel NEMO-binding domain mimetics for inhibiting IKK/NF-κB activation” (PLoS Biology, 2018)
Where “and” joins values, the source holds several entries; their conditions need not be identical. Identical values can stand only once. Like-named read-outs stand apart in the source and are kept apart here.

What was measured:
[1] = test system: NF-κB target genes; assay: qRT-PCR of NF-κB target genes in LPS-stimulated Raw 264.7 cells; format: cell-based, mouse; conditions: LPS 1 μg/ml 2 h; for iNOS mRNA expression (qRT-PCR) / COX2 mRNA expression (qRT-PCR) / IL6 mRNA expression (qRT-PCR) / IL-1b mRNA expression (qRT-PCR) / TNFa mRNA expression (qRT-PCR) / ikBa mRNA expression (qRT-PCR): Fig 4C, IKKi VII 2 μM, 8K-NBD 200 μM, SR compounds 50 μM, relative to no LPS; for Effect on transcription of NF-κB target genes (COX-2, IL-6, IL-1β, TNF-α, IκBα, iNOS): 50 μM
[2] = test system: IL-6 production; assay: Mouse IL-6 ELISA of supernatant of LPS-stimulated Raw 264.7 cells; format: cell-based; conditions: LPS 1 μg/ml 24 h; for mIL-6 in supernatant (ELISA): Fig 4D; for Effect on LPS-induced IL-6 production (ELISA): 25 and 50 μM
Protocol: Fig 4 Modified lead NBD mimetics inhibit TNF-α- and LPS-induced NF-κB activation by disrupting the association between NEMO and IKKβ. (A) Structures of top NBD mimetics. (B) Measurement of NF-κB activation in response to TNF-α by using Dual-luciferase reporter assays. HEK293 cells cotransfected with NF-κB luciferase reporter and SV40-Renilla plasmids were pretreated with DMSO or listed small molecules at 0, 25, 50, 100, and 150 μM for 30 min, followed by the induction of TNF-α for 3 h. Data shown are representative of 2–3 independent experiments. […] Raw 264.7 cells were pretreated with indicated drugs for 30 min and then stimulated with 1 μg/ml of LPS for 2 h. Cells were then harvested for RNA extraction and qRT-PCR analysis. Drug concentrations used are as follows: IKKi VII (2 μM), 8K-NBD peptide (200 μM), SR12343 (50 μM), SR12460 (50 μM), SR12454 (50 μM), and SR11481 (50 μM). Data are representative of 2 independent experiments. […] Raw 264.7 cells pretreated with DMSO or drugs at indicated concentrations were exposed to 1 μg/ml of LPS for 24 h, and supernatant was collected for ELISA analysis of mouse IL-6. *P < 0.05; **P < 0.01. Underlying data can be found in S1 Data. HEK293, human embryonic kidney 293 cells; IKK, IκB kinase; IL-6, interleukin 6; LPS, lipopolysaccharide; NBD, NEMO-binding domain; n.d., nondetectable; NEMO, NF-κB essential modulator; NF-κB, nuclear factor κB; qRT-PCR, […] real-time polymerase chain reaction; TNF-α; tumor necrosis factor α. TEXT PRINTED IN THE PICTURE: (D) ikki VII: mIL-6 (ng/ml): n.d. | (D) SR12460: mIL-6 (ng/ml): n.d. (50μM) | (D) SR12454: mIL-6 (ng/ml): n.d. (50μM) DOUBTS OF THE COPYIST ABOUT THIS PICTURE: Panel D: the only printed results are the three "n.d." labels. They stand in place of bars and are assigned to ikki VII, SR12460 50μM and SR12454 50μM by their position on the axis. All other results are shown only as bars, with no printed numbers.
To confirm the qRT-PCR results, the levels of IL-6 production in Raw 264.7 cells activated by LPS were analyzed by ELISA.
Raw 264.7 cells were grown in 96-well plates and pretreated with vehicle, IKKi VII (2 μM), and small molecules (at indicated concentration) for 1 h, followed by the stimulation with 1 μg/ml of LPS. Supernatant was collected 24 h later for ELISA analysis. IL-6 concentration was measured using a mouse IL-6 ELISA kit (BD) according to the manufacturer’s instructions.

[3] = test system: NF-κB activation; assay: NF-κB firefly luciferase reporter assay, TNF-α-stimulated stably transfected HEK293 cells; format: cell-based, human; conditions: Fig 2C; derivatives at 100 μM, TNF-α 10 ng/ml 3 h; vehicle = 100; single experiments
Protocol: To determine whether the small molecules identified by the in silico screening inhibit NF-κB activation, a HEK293 cell line stably expressing a luciferase reporter driven by a synthetic, NF-κB-dependent promoter was utilized. To induce NF-κB activation, cells were treated with 10 ng/mL of TNF-α and harvested 3 h post treatment for analysis of luciferase activity. […] To determine whether ZINC12909780 inhibits NF-κB in a dose-dependent manner, concentrations were tested at 0, 6.25, 25, 50, and 100 μM.
Luciferase activity was normalized to untreated stimulated control cells. […] Cell viability was calculated by normalizing to untreated cells. […] Underlying data can be found in S1 Data.
HEK293 cells stably transfected with luciferase reporter plasmid driven by NF-κB were seeded in 96-well plates in triplicate and pretreated with DMSO or varying small molecules at indicated concentration for 30 min, followed by the stimulation of 10 ng/ml of TNF-α for 3 h. Cells were washed with PBS once and harvested in Passive Lysis Buffer (Promega, Madison, WI). Luciferase assay (Promega) was performed by using a luminometer according to the manufacturer’s instructions.

[4] = test system: NEMO; conditions: ref [21], [32]–[34]; read-out: IC50, affinity to NEMO; cited from earlier work
[5] = Plasma and tissue concentrations 2 h after a single i.p. injection; format: in vivo, mouse; conditions: male, C57BL/6J, mouse, ip, 10 mg/kg, 2 h post single i.p. 10 mg/kg, single mice
Protocol: To determine the stability of the NBD mimetics in vivo, their levels were measured in the plasma of mice 2 h post i.p. injection with 10 mg/kg of each compound. The concentration of SR12460 was very high in plasma (>6.5 μg/mL; 20 μM), while levels in brain, muscle, spleen, and liver were lower. SR12343 and SR12454 had lower plasma concentrations, with SR12343 showing a higher level in liver and SR12454 showing higher concentrations in muscle and spleen. The level of SR11481 was undetectable in plasma and tissues (Fig 6A).
Fig 6 Newly identified NBD mimetics suppress LPS-induced acute inflammation in vivo. (A) The bioavailability property of SR12460, SR12343, SR12454, and SR11481. Concentrations of NBD mimetics were determined in plasma, brain, muscle, spleen, and liver 2 h post a single i.p. injection of 10 mg/kg of drugs; n = 3 per group. (B) Shown is the model to induce LPS-mediated acute inflammation and the treatment regimen with NBD mimetics. Mouse image via http://www.clker.com/clipart-mice-blank.html (copyright-free). (C) NBD mimetics suppressed LPS-induced acute inflammation in liver and lung by down-regulating NF-κB target gene expression. Vehicle, SR12343, SR12460, and 8K-NBD peptide were dosed at 10 mg/kg 30 min prior to the LPS treatment. Acute inflammation was induced by i.p. injection of 10 mg/kg LPS. Lung and liver were collected 2–4 h post injection, and mRNA was extracted for qRT-PCR analysis. (D, E) Western blot analysis was performed to probe for the expression of p-IκBα and COX-2 at protein level in liver and lung tissues. (F) Serum levels of IL-6 were determine by ELISA. n = 3–8 each group. *P < 0.05, **P < 0.01. Underlying data can be found in S1 Data. COX-2, cyclooxygenase 2; IL-6, interleukin 6; i.p., intraperitoneal; LPS, lipopolysaccharide; NBD, NEMO-binding domain; n.d., nondetectable; NEMO, NF-κB essential modulator; NF-κB, nuclear factor κB; qRT-PCR, quantitative real-time polymerase chain reaction. TEXT PRINTED IN THE PICTURE: (A) SR11481: Concentration (ng/ml): n.d. (plasma)
The pharmacokinetic profile of the NBD mimetics was determined in male C57BL/6J mice (n = 3). The drugs were formulated in 10:10:80 of DMSO:Tween 80:water and were dosed by i.p. injection at a final dose of 10 mg/kg. Blood, brain, muscle, spleen, and liver were collected 2 h post treatment and were analyzed by mass spectrometry by following a protocol previously described.

[6] = test system: NF-κB activation; assay: Dual-luciferase (NF-κB firefly/SV40-Renilla) reporter assay, TNF-α-stimulated HEK293 cells; format: cell-based, human; conditions: for Relative luciferase activity (NF-κB/Renilla): Fig 4B, CTRL about 1; for NF-κB luciferase activity, dose-dependent curve: Fig S1A, CTRL about 100; for IC50: Homo sapiens, HEK293, luciferase assays at 0, 25, 50, 100, 150 μM, GraphPad, read-out: IC50 of inhibition of TNF-α-mediated NF-κB activation

Molecule: O=C(c1ccc(Nc2nccc(-c3cc4ccccc4s3)n2)cc1)N1CCC(N2CCCC2)CC1 [IKKi VII, reference compound]
- iNOS mRNA expression (qRT-PCR) [1]: failed to down-regulate iNOS expression
- COX2 mRNA expression (qRT-PCR) ([1]; listed as ikki VII): 169.382 and 169.611 and 190.029
- IL6 mRNA expression (qRT-PCR) ([1]; listed as ikki VII): 61.5373 and 59.8482 and 47.3662
- IL-1b mRNA expression (qRT-PCR) ([1]; listed as ikki VII): 67.7567 and 72.7507 and 75.5037
- TNFa mRNA expression (qRT-PCR) ([1]; listed as ikki VII): 61.1388 and 68.3653 and 68.6282
- iNOS mRNA expression (qRT-PCR) ([1]; listed as ikki VII): 24.1042 and 20.2843 and 19.9052
- ikBa mRNA expression (qRT-PCR) ([1]; listed as ikki VII): 8.329 and 8.125 and 9.136
- mIL-6 in supernatant (ELISA) ([2]; IKKi VII 2 μM): 0 ng/mL
- NF-κB luciferase activity normalized to vehicle [3]: lowered NF-κB activity robustly

Molecule: IKKβ-derived peptide (701–746): longer IKKβ-derived peptide (701–746) with strongest affinity to NEMO (PAKKSEELVAEAHNLCTLLENAIQDTVREQDQSFTALDWSWLQTEE; UniProt O14920 701-746, looked up, fragment)
- IC50 [4]: ~0.01 µM

Molecule: O=C(COC(=O)Cc1cc(F)cc(F)c1)Nc1ccc(Cl)cn1 [SR11481]
- COX2 mRNA expression (qRT-PCR) [1]: 591.346 and 521.171 and 682.383
- IL6 mRNA expression (qRT-PCR) [1]: 630.626 and 570.463 and 862.622
- IL-1b mRNA expression (qRT-PCR) [1]: 411.733 and 420.368 and 564.689
- TNFa mRNA expression (qRT-PCR) [1]: 96.3315 and 86.7639 and 154.495
- iNOS mRNA expression (qRT-PCR) [1]: 25.4503 and 21.5558 and 14.0886
- ikBa mRNA expression (qRT-PCR) [1]: 12.89 and 13.062 and 21.9932
- Effect on transcription of NF-κB target genes (COX-2, IL-6, IL-1β, TNF-α, IκBα, iNOS) [1]: did not induce a detectable suppression
- mIL-6 in supernatant (ELISA) ([2]; 25 μM): 1.0708 ng/mL and 1.7487 ng/mL and 1.6903 ng/mL
- mIL-6 in supernatant (ELISA) ([2]; 50 μM): 2.4581 ng/mL and 2.0675 ng/mL and 2.2021 ng/mL
- Effect on LPS-induced IL-6 production (ELISA) [2]: significant reduction in the accumulation of IL-6 protein
- concentration at 2 h ([5]; plasma, read-out: Concentration in plasma): 0 ng/mL
- Relative luciferase activity (NF-κB/Renilla) ([6]; 25 μM): 0.669 and 0.7893 and 1.108
- Relative luciferase activity (NF-κB/Renilla) ([6]; 50 μM): 0.3445 and 0.3583 and 0.2895
- Relative luciferase activity (NF-κB/Renilla) ([6]; 100 μM): 0.1303 and 0.1653 and 0.168
- Relative luciferase activity (NF-κB/Renilla) ([6]; 150 μM): 0.2602 and 0.3121 and 0.2334
- NF-κB luciferase activity, dose-dependent curve ([6]; 25 μM): 67 and 79 and 111
- NF-κB luciferase activity, dose-dependent curve ([6]; 50 μM): 34 and 36 and 29
- NF-κB luciferase activity, dose-dependent curve ([6]; 100 μM): 13 and 16 and 17
- NF-κB luciferase activity, dose-dependent curve ([6]; 150 μM): 26 and 31 and 23
- IC50 [6]: 45 µM

Molecule: O=C(COCCc1cc(F)cc(F)c1)Nc1ccc(Cl)cn1 [SR12454]
- COX2 mRNA expression (qRT-PCR) [1]: 150.094 and 139.148 and 109.409
- IL6 mRNA expression (qRT-PCR) [1]: 68.7623 and 55.5227 and 41.2895
- IL-1b mRNA expression (qRT-PCR) [1]: 114.812 and 133.157 and 94.1462
- TNFa mRNA expression (qRT-PCR) [1]: 50.3605 and 45.36 and 45.9381
- iNOS mRNA expression (qRT-PCR) [1]: 0.9093 and 0.7681 and 0.624
- ikBa mRNA expression (qRT-PCR) [1]: 6.788 and 6.238 and 5.4976
- Effect on transcription of NF-κB target genes (COX-2, IL-6, IL-1β, TNF-α, IκBα, iNOS) [1]: significantly inhibit the transcription of all NF-κB target genes tested
- mIL-6 in supernatant (ELISA) ([2]; 25 μM): 0.9451 ng/mL and 1.2144 ng/mL and 1.5871 ng/mL
- mIL-6 in supernatant (ELISA) ([2]; 50 μM): 0 ng/mL
- Effect on LPS-induced IL-6 production (ELISA) [2]: inhibit IL-6 secretion significantly in a dose-dependent manner
- concentration at 2 h ([5]; liver, read-out: Concentration in liver): 50 ng/mL
- Relative luciferase activity (NF-κB/Renilla) ([6]; 25 μM): 0.3499 and 0.3985 and 0.4797
- Relative luciferase activity (NF-κB/Renilla) ([6]; 50 μM): 0.1222 and 0.1389 and 0.1212
- Relative luciferase activity (NF-κB/Renilla) ([6]; 100 μM): 0.07928 and 0.07742 and 0.08432
- Relative luciferase activity (NF-κB/Renilla) ([6]; 150 μM): 0.1048 and 0.1061 and 0.0973
- NF-κB luciferase activity, dose-dependent curve ([6]; 25 μM): 35 and 40 and 48
- NF-κB luciferase activity, dose-dependent curve ([6]; 50 μM): 12 and 14
- NF-κB luciferase activity, dose-dependent curve ([6]; 100 μM): 8 and 7.7 and 8.4
- NF-κB luciferase activity, dose-dependent curve ([6]; 150 μM): 10.4 and 10.6 and 9.7
- IC50 [6]: 20.2 µM

Molecule: 11-mer NBD peptide: traditional 11-mer NBD peptide of IKKβ (735–745) (TALDWSWLQTE; NEMO-binding domain peptide; UniProt O14920 735-745, looked up, fragment)
- IC50 [4]: ~100 µM
